Test results from patent US8431356B2, “Fluorescence resonance energy transfer assays for sarco/endoplasmic reticulum calcium atpase and phospholamban” (Regents of the University of Minnesota, priority 2009, dated 2013).

Tests used:
[1] = test system: LNCaP prostate cancer cells; conditions: administration of thapsigargin; cited from earlier work
SERCA [2] = molecular target: T1, SERCA (Oryctolagus cuniculus, UniProt P04191); assay: FRET potency of PLB variants, IAEDANS-SERCA/DABCYL-PLB; type: binding; conditions: energy transfer efficiency at 5 PLB/SERCA, mean±SEM
T1 construct: from tissue
T1 sequence (P04191 1-994 isoform P04191-2): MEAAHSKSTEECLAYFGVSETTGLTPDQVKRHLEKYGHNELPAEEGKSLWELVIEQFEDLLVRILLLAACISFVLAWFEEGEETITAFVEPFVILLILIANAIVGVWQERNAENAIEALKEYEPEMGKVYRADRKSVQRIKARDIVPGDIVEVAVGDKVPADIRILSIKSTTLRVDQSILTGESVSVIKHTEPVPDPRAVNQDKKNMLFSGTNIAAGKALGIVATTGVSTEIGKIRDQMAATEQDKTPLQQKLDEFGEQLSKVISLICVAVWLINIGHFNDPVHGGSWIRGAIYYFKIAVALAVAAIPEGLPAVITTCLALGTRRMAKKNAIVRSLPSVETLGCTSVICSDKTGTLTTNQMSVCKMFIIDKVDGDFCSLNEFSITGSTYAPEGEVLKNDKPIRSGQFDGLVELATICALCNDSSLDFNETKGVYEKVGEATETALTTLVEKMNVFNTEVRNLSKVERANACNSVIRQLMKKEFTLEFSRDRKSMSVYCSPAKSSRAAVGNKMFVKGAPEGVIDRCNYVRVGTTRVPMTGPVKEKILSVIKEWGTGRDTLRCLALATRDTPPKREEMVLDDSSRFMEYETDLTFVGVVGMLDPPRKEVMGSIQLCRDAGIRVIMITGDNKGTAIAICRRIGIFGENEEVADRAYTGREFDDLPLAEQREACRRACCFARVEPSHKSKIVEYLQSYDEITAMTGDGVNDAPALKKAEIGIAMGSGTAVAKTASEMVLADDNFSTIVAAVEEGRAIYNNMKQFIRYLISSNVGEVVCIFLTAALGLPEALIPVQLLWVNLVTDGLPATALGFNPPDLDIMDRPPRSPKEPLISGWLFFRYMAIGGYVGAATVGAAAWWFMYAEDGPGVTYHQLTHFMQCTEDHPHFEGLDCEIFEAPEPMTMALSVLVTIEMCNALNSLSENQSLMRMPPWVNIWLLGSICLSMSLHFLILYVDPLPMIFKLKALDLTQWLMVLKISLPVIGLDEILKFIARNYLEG
Source text: (§1) For intermolecular FRET, IAEDANS-SERCA was reconstituted with DABCYL-PLB essentially as described previously (see Reddy et al., (1999) J. Biol. Chem. 274:7649-7655; Reddy et al., (1995) J. Biol. Chem. 270:9390-9397; Reddy et al., (1996) J. Biol. Chem. 271:14964-14970) but adapted to modify the SERCA membrane concentration (molar ratio, SERCA/1000 lipids) and PLB-to-SERCA ratio (molar ratio PLB/SERCA). The desired amount of DABCYL-PLB in methanol and lipids (DOPC and DOPE, 4:1 weight ratio in chloroform) were gently mixed and dried over nitrogen gas to create a thin film. Residual solvent was removed under vacuum and desiccant overnight. Lipids and peptides were solubilized in reconstitution buffer (5 mM MgCl2, 0.1M KCl, 10% glycerol, 20 mM MOPS, pH 7.0) by vortexing thoroughly, followed by mild sonication for 30 seconds to form unilamellar vesicles. C12E8 (2 mg/mg of lipid) was added to the tube. Detergent was removed over a 3 hour period using Biobeads SM2 (25 mg/mg of C12E8). FRET was measured immediately following reconstitution. Samples were frozen until gel electrophoresis.
(§2) The plates were read at 25° C. using a Gemini EM fluorescence microplate reader, with bottom excitation at 350 nm (6 flashes). The spectra were obtained with 10 nm resolution between 420 and 600 nm (PMT sensitivity set to High). Total read time per plate was estimated to be 20 minutes.
The free calcium concentration, [Ca^2+], was controlled by Ca/EGTA buffering, calculated by the method disclosed in Fabiato et al., (1979) J. Physiol. (Paris) 75:463-505. Measurements were conducted in low-Ca (pCa 6.5) buffer (50 mM KCl, 5 mM MgCl2, 0.5 mM EGTA, 210 μM CaCl2, 50 mM MOPS, pH 7.0), where the inhibitory effect of PLB was maximal.
(§3) The fluorescence resonance energy transfer efficiency (E) was calculated from the fractional decrease of steady-state emission of the donor (FD) due to the presence of the acceptor (FDA):
(§4) Functional potency was measured by ATPase assay as ΔpKCa, which stands for the shift in pCa value required for 50% activation of SERCA, at a ratio of 5 PLB/SERCA. FRET potency was measured as E(5), the energy transfer efficiency found at a ratio of 5 PLB/SERCA (N=4-6, mean±SEM).

SERCA [3] = molecular target: T1, SERCA; assay: Functional potency of PLB variants by ATPase assay (reconstituted SERCA/PLB); type: biochemical; conditions: shift in pCa for 50% activation of SERCA, 5 PLB/SERCA, mean±SEM
Source text: as §1
(§5) ATPase activity was measured using an NADH-linked, enzyme-coupled microtiter plate assay (200 μL/well) as described in Karim et al., (2000) J. Biol. Chem. 276, 38814-9 and Reddy et al., (2003) Biochemistry 42, 4585-92. [Ca2+] was controlled by Ca/EGTA buffering by the method described in Fabiato et al., (1979) J. Physiol. (Paris) 75:463-505. The assays were detected at 340 nm on a Spectramax Plus microplate spectrophotometer (Molecular Devices) at 25° C. in the presence of ionophore A23187 to dissipate the Ca gradient building up across the membranes due to ATPase activity. The data were plotted (V vs pCa) and fitted by the Hill equation: […]
where V is the initial ATPase rate and n is the Hill coefficient. Data were normalized to the maximal rate, Vmax, which was obtained from the fit, and replotted to determine the shift in pKCa.
as §4

SERCA-PLB complex [4] = assay: Competition of LOF PLB mutants with active PLB, ATPase activity; type: biochemical; conditions: 5 moles each per mole SERCA
Protocol: as §5
(§6) The competition of WT-PLB and PLB derivatives was assessed by ATPase activity (e.g., Example 11) and FRET assays (e.g., Example 8). A reconstituted sample containing 5 moles of acceptor-labeled active PLB (WT or I40A) and 5 moles of an unlabeled loss-of-function (LOF) mutant (L31A or S16E) per mole of SERCA was compared with a control, a reconstituted sample with 5 moles of an active PLB (WT or I40A) per mole of SERCA. Competition was measured as the fractional decrease in ΔpKCa or FRET efficiency E, due to the presence of the LOF mutant (N=3-6, mean±SEM).

SERCA-PLB complex [5] = assay: Competition of LOF PLB mutants with acceptor-labeled active PLB, FRET; type: binding; conditions: 5 moles each per mole SERCA
Protocol: as §2, §3, §6

[6] = competitor vs acceptor-labeled I40A PLB
[7] = competitor vs acceptor-labeled WT PLB

Row | Compound | FRET potency, E(5) (SERCA [2]) | Functional potency (ΔpKCa) (SERCA [3]) | Functional relief (fractional decrease in ΔpKCa) (SERCA-PLB complex [4]; competitor vs I40A PLB) | Functional relief (fractional decrease in ΔpKCa) (SERCA-PLB complex [4]; competitor vs WT PLB) | growth of LNCaP prostate cancer cells in mice [1] | FRET relief (fractional decrease in FRET efficiency E) (SERCA-PLB complex [5]; [6]) | FRET relief (fractional decrease in FRET efficiency E) (SERCA-PLB complex [5]; [7])
1 | C/C=C(/C)C(=O)O[C@H]1C(C)=C2[C@H]([C@@H]1OC(=O)CCCCCCC)[C@@](C)(OC(C)=O)C[C@H](OC(=O)CCC)[C@@]1(O)[C@H]2OC(=O)[C@@]1(C)O [thapsigargin] |  |  |  |  | inhibited |  | 
2 | I40A: PLB derivative, isoleucine to alanine at position 40; monomeric, superinhibitory gain-of-function mutant (MEKVQYLTRSAIRRASTIEMPQQARQKLQNLFINFCLILACLLLICIIVMLL; UniProt P26678 1-52, looked up, variant I40A) | 0.69 ± 0.03 | 0.48 ± 0.03 |  |  |  |  | 
3 | WT: wild-type phospholamban (PLB), made by solid-phase peptide synthesis | 0.60 ± 0.03 | 0.18 ± 0.02 |  |  |  |  | 

Further lines, with some results ahead:

Row | FRET potency, E(5) (SERCA [2]) | Functional potency (ΔpKCa) (SERCA [3]) | Functional relief (fractional decrease in ΔpKCa) (SERCA-PLB complex [4]; competitor vs I40A PLB) | Functional relief (fractional decrease in ΔpKCa) (SERCA-PLB complex [4]; competitor vs WT PLB) | Compound | growth of LNCaP prostate cancer cells in mice [1] | FRET relief (fractional decrease in FRET efficiency E) (SERCA-PLB complex [5]; [6]) | FRET relief (fractional decrease in FRET efficiency E) (SERCA-PLB complex [5]; [7])
4 | 0.45 ± 0.03 | 0.05 ± 0.01 | 0.47 ± 0.06 | 0.79 ± 0.04 | L31A: PLB derivative, leucine to alanine at position 31; loss-of-function (LOF) mutant (MEKVQYLTRSAIRRASTIEMPQQARQKLQNAFINFCLILICLLLICIIVMLL; UniProt P26678 1-52, looked up, variant L31A) |  | 0.18 ± 0.12 | 0.37 ± 0.06
5 | 0.69 ± 0.02 | 0.07 ± 0.02 | 0.40 ± 0.03 | 0.83 ± 0.05 | S16E: PLB derivative, serine to glutamate at position 16; loss-of-function (LOF) mutant (MEKVQYLTRSAIRRAETIEMPQQARQKLQNLFINFCLILICLLLICIIVMLL; UniProt P26678 1-52, looked up, variant S16E) |  | 0.15 ± 0.08 | 0.27 ± 0.10
